Data reported in publication PMC12884772, “Macrophagic Sclerostin Loop2‐ApoER2 Interaction Required by Sclerostin for Cardiovascular Protective Action” (Advanced Science, 2025).

Tested on: RAW264.7 macrophages (siLrp8)
Experiment: LPS‐induced inflammatory responses in RAW264.7 macrophages (siLrp8) with or without ApoER2 (Lrp8) plasmid
Type: cell-based, mouse
Text: Further, we tracked the dynamic changes of inflammatory responses in mouse RAW264.7 macrophages (with Lrp8 silencing for shielding the influence of endogenous ApoER2). The RAW264.7 macrophages (siLrp8) were transfected with plasmids encoding ApoER2 (Lrp8) or vector, followed by treatment with recombinant mouse sclerostin and induction with LPS for varying durations. In detail, RAW 264.7 macrophages (siLrp8) were divided into 7 groups (n = 3 per group), including (1) Control, (2) LPS, (3) LPS + SOST, (4) Lrp8 + LPS + SOST 250 nM, (5) Lrp8 + LPS + SOST 500 nM, (6) Lrp8 + LPS + SOST 1 µM, and (7) Lrp8 + LPS. Cells in group (4–7) were transfected with plasmids encoding mouse ApoER2 (Lrp8), while cells in group (1–3) were transfected with vector. Twenty four hours later, cells in groups (3), (4), (5), and (6) were treated with recombinant mouse sclerostin at concentration of 1 µM, 250 nM, 500 nM, and 1 µM for 3 h, respectively, while cells in groups (1), (2), and (7) were treated with vehicle.^[ [35] ^] Then, cells in group (2‐7) were treated with LPS (1 µg/mL) for 18 h. All groups of cell lysates were collected for determining the mRNA expression levels of mouse TNF‐α, mouse MCP‐1, and mouse IL‐10 by RT‐PCR. Given the significant efficacy of recombinant mouse sclerostin at a concentration of 1 µM in mouse macrophages, 1 µM was selected for the subsequent studies.
Then, the protein expression/secretion levels of pro‐inflammatory/anti‐inflammatory cytokines and chemokines, macrophage conversion, NF‐κB subcellular localization, phosphorylation, and expression were determined. In detail, RAW 264.7 cells (siLrp8) were divided into 5 groups (n = 3 per group), including (1) Control, (2) LPS, (3) LPS + SOST, (4) Lrp8 + LPS + SOST, and (5) Lrp8 + LPS. RAW 264.7 cells in groups (4) and (5) were transfected with plasmids encoding mouse ApoER2 (Lrp8), while cells in group (1‐3) were transfected with vector. Twenty four hours later, cells in groups (3) and (4) were treated with recombinant mouse sclerostin (SOST, 1 µM) for 3 h, while cells in groups (1), (2), and (5) were treated with vehicle.^[ [35] ^] Then, cells in groups (2), (3), (4), and (5) were treated with LPS (1 µg/mL) for 12 and 18 h. Cell mediums were collected for determining the protein expression/secretion levels of mouse TNF‐α, mouse MCP‐1, and mouse IL‐10 by ELISA.^[ [34] ^] The CD206^+ macrophages and CD11b^+ macrophages were determined by flow cytometry.^[ [36] ^]
Additionally, for the determination of NF‐κB (p65) nuclear translocation, macrophages in groups (3) and (4) were treated with recombinant mouse sclerostin (SOST, 1 µM) overnight, then macrophages in groups (2), (3), (4), and (5) were treated with LPS (1 µg/mL) for 15 and 30 min. The NF‐κB (p65) nuclear translocation in macrophages was examined under microscope, after LPS induction for 15 min.^[ [37] ^] The protein level of NF‐κB (p65) in nuclear and cytoplasm was determined by western blot assay, after LPS induction for 30 min.^[ [38] ^]
Subsequently, for the determination of NF‐κB phosphorylation, macrophages in groups (3) and (4) were treated with recombinant mouse sclerostin (SOST, 1 µM) overnight, then macrophages in groups (2), (3), (4), and (5) were treated with LPS (1 µg/mL) for 6 h. The protein level of phospho‐NF‐κB (p‐p65) was determined by western blot assay, followed by calculating the proportion of p‐p65/total p65 in cells.^[ [39] ^] At the same time, the mRNA expression level of NF‐κB (p65) was determined by RT‐PCR.^[ [40] ^] […]
Total RNA was extracted from cells following the protocols of Trizol reagent (Invitrogen, 15 596 026). Reverse‐transcription was performed to obtain cDNA using HiScript III RT SuperMix kit (Vazyme, R323), and RT‐PCR was accomplished using a HiScript III RT SuperMix kit (Vazyme, R323) in a QuantStudio 7 PRO System (Applied Biosystems). The relative gene expression levels were calculated using the 2^−ΔΔCt method with GAPDH as the reference gene.^[ [40] ^] […]

[1] = 1 µM, ApoER2‐overexpressing macrophages versus LPS+SOST or Lrp8+LPS, LPS 18 h, ELISA
[2] = 1 µM, ApoER2‐overexpressing macrophages, LPS 30 min, western blot
[3] = 1 µM, ApoER2‐overexpressing, versus LPS group, P < 0.01, LPS 18 h
[4] = Lrp8+LPS+SOST 250 nM, 500 nM, 1 µM versus LPS+SOST or Lrp8+LPS, LPS 18 h, RT‐PCR

## sclerostin: recombinant human/mouse full‐length sclerostin protein
1 µM overnight, ApoER2‐overexpressing macrophages, LPS 15 min, immunofluorescence
  NF‐κB nuclear translocation: significantly lower
[1]
  Medium protein level of IL‐10: significantly higher
  Medium protein levels of TNF‐α and MCP‐1: significantly lower
1 µM, ApoER2‐overexpressing macrophages, LPS 12 and 18 h, flow cytometry
  Proportion of anti‐inflammatory phenotype (CD206^+): significantly higher
[2]
  p65 protein level in the cytoplasmic fraction: elevation
  p65 protein level in the nuclear fraction: reduction
1 µM, ApoER2‐overexpressing macrophages, LPS 6 h, RT‐PCR
  mRNA expression level of NF‐κB (p65): significantly lower
1 µM, ApoER2‐overexpressing macrophages, LPS 6 h, western blot
  Protein level of phospho‐NF‐κB (p‐p65): significantly lower
[3]
  mRNA expression of MCP‐1: significantly suppressed
  mRNA expression of TNF‐α: significantly suppressed
1 µM, ApoER2‐overexpressing, versus LPS group, P < 0.05, LPS 18 h
  mRNA expression of IL‐10: significantly promoted
[4]
  mRNA expression level of IL‐10: dose‐dependently higher
  mRNA expression levels of TNF‐α and MCP‐1: dose‐dependently lower
RAW264.7 (siLrp8) without ApoER2 plasmid, sclerostin 1 µM, LPS 1 µg/mL for varying durations
  Cytokine/chemokine mRNA and medium protein, macrophage phenotype proportions, NF‐κB nuclear translocation/phosphorylation/mRNA: LPS+SOST versus LPS: no significant differences
